# Experiment: Effect of solvent on the stability of the solution (purity at various pH values and temperature)
# Type: physicochemical
# Details: 7% solution
smiles,measurement,setting,value
CCN(CC)CCOC(=O)c1ccccc1OC(C)=O.Cl,Purity (%) at day 14 (60° C.),"solvent 25% ethanol, pH 8.0, day 14, 60° C.",0%
same,Purity(%) at day 0,"solvent 50% ethanol, pH 1.0, day 0",99.2 ± 0.3%
same,Purity(%) at day 14 (5° C.),"solvent 50% ethanol, pH 1.0, day 14, 5° C.",92.4 ± 0.3%
same,Purity(%) at day 14 (25° C.),"solvent 50% ethanol, pH 1.0, day 14, 25° C.",63.8 ± 0.4%
same,Purity(%) at day 14 (40° C.),"solvent 50% ethanol, pH 1.0, day 14, 40° C.",0%
same,Purity (%) at day 14 (60° C.),"solvent 50% ethanol, pH 1.0, day 14, 60° C.",0%
same,Purity(%) at day 0,"solvent 50% ethanol, pH 2.0, day 0",99.5 ± 0.2%
same,Purity(%) at day 14 (5° C.),"solvent 50% ethanol, pH 2.0, day 14, 5° C.",96.9 ± 0.3%
same,Purity(%) at day 14 (25° C.),"solvent 50% ethanol, pH 2.0, day 14, 25° C.",84.7 ± 0.3%
same,Purity(%) at day 14 (40° C.),"solvent 50% ethanol, pH 2.0, day 14, 40° C.",0%
same,Purity (%) at day 14 (60° C.),"solvent 50% ethanol, pH 2.0, day 14, 60° C.",0%
same,Purity(%) at day 0,"solvent 50% ethanol, pH 3.0, day 0",99.6 ± 0.3%
same,Purity(%) at day 14 (25° C.),"solvent 50% ethanol, pH 3.0, day 14, 25° C.",89.5 ± 0.3%
same,Purity(%) at day 14 (40° C.),"solvent 50% ethanol, pH 3.0, day 14, 40° C.",3.2 ± 0.3%
same,Purity (%) at day 14 (60° C.),"solvent 50% ethanol, pH 3.0, day 14, 60° C.",0%
same,Purity(%) at day 0,"solvent 50% ethanol, pH 3.7, day 0",99.7 ± 0.2%
same,Purity(%) at day 14 (5° C.),"solvent 50% ethanol, pH 3.7, day 14, 5° C.",99.1 ± 0.3%
same,Purity(%) at day 14 (25° C.),"solvent 50% ethanol, pH 3.7, day 14, 25° C.",96.6 ± 0.2%
same,Purity(%) at day 14 (40° C.),"solvent 50% ethanol, pH 3.7, day 14, 40° C.",16.9 ± 0.3%
same,Purity (%) at day 14 (60° C.),"solvent 50% ethanol, pH 3.7, day 14, 60° C.",0%
same,Purity(%) at day 0,"solvent 50% ethanol, pH 4.0, day 0",99.8 ± 0.2%
same,Purity(%) at day 14 (5° C.),"solvent 50% ethanol, pH 4.0, day 14, 5° C.",99.2 ± 0.3%
same,Purity(%) at day 14 (25° C.),"solvent 50% ethanol, pH 4.0, day 14, 25° C.",97.2 ± 0.3%
same,Purity(%) at day 14 (40° C.),"solvent 50% ethanol, pH 4.0, day 14, 40° C.",16.8 ± 0.4%
same,Purity (%) at day 14 (60° C.),"solvent 50% ethanol, pH 4.0, day 14, 60° C.",0%
same,Purity(%) at day 0,"solvent 50% ethanol, pH 4.3, day 0",99.7 ± 0.2%
same,Purity(%) at day 14 (5° C.),"solvent 50% ethanol, pH 4.3, day 14, 5° C.",99.1 ± 0.2%
same,Purity(%) at day 14 (25° C.),"solvent 50% ethanol, pH 4.3, day 14, 25° C.",97.2 ± 0.2%
same,Purity(%) at day 14 (40° C.),"solvent 50% ethanol, pH 4.3, day 14, 40° C.",14.9 ± 0.3%
same,Purity (%) at day 14 (60° C.),"solvent 50% ethanol, pH 4.3, day 14, 60° C.",0%
same,Purity(%) at day 0,"solvent 50% ethanol, pH 4.6, day 0",99.7 ± 0.3%
same,Purity(%) at day 14 (25° C.),"solvent 50% ethanol, pH 4.6, day 14, 25° C.",96.9 ± 0.3%
same,Purity(%) at day 14 (40° C.),"solvent 50% ethanol, pH 4.6, day 14, 40° C.",4.9 ± 0.3%
same,Purity (%) at day 14 (60° C.),"solvent 50% ethanol, pH 4.6, day 14, 60° C.",0%
same,Purity(%) at day 0,"solvent 50% ethanol, pH 5.0, day 0",99.6 ± 0.2%
same,Purity(%) at day 14 (25° C.),"solvent 50% ethanol, pH 5.0, day 14, 25° C.",93.1 ± 0.3%
same,Purity(%) at day 14 (40° C.),"solvent 50% ethanol, pH 5.0, day 14, 40° C.",2.3 ± 0.2%
same,Purity (%) at day 14 (60° C.),"solvent 50% ethanol, pH 5.0, day 14, 60° C.",0%
same,Purity(%) at day 0,"solvent 50% ethanol, pH 6.0, day 0",99.5 ± 0.3%
same,Purity(%) at day 14 (5° C.),"solvent 50% ethanol, pH 6.0, day 14, 5° C.",92.9 ± 0.4%
same,Purity(%) at day 14 (25° C.),"solvent 50% ethanol, pH 6.0, day 14, 25° C.",85.5 ± 0.3%
same,Purity(%) at day 14 (40° C.),"solvent 50% ethanol, pH 6.0, day 14, 40° C.",0%
same,Purity (%) at day 14 (60° C.),"solvent 50% ethanol, pH 6.0, day 14, 60° C.",0%
same,Purity(%) at day 0,"solvent 50% ethanol, pH 7.0, day 0",99.4 ± 0.3%
same,Purity(%) at day 14 (5° C.),"solvent 50% ethanol, pH 7.0, day 14, 5° C.",88.2 ± 0.3%
same,Purity(%) at day 14 (25° C.),"solvent 50% ethanol, pH 7.0, day 14, 25° C.",61.9 ± 0.4%
same,Purity(%) at day 14 (40° C.),"solvent 50% ethanol, pH 7.0, day 14, 40° C.",0%
same,Purity (%) at day 14 (60° C.),"solvent 50% ethanol, pH 7.0, day 14, 60° C.",0%
same,Purity(%) at day 0,"solvent 50% ethanol, pH 8.0, day 0",99.2 ± 0.3%
same,Purity(%) at day 14 (5° C.),"solvent 50% ethanol, pH 8.0, day 14, 5° C.",60.3 ± 0.4%
same,Purity(%) at day 14 (25° C.),"solvent 50% ethanol, pH 8.0, day 14, 25° C.",23.9 ± 0.4%
same,Purity(%) at day 14 (40° C.),"solvent 50% ethanol, pH 8.0, day 14, 40° C.",0%
same,Purity (%) at day 14 (60° C.),"solvent 50% ethanol, pH 8.0, day 14, 60° C.",0%
same,Purity(%) at day 0,"solvent water, pH 1.0, day 0",99.1 ± 0.3%
same,Purity(%) at day 14 (5° C.),"solvent water, pH 1.0, day 14, 5° C.",90.8 ± 0.3%
same,Purity(%) at day 14 (25° C.),"solvent water, pH 1.0, day 14, 25° C.",62.2 ± 0.4%
same,Purity(%) at day 14 (40° C.),"solvent water, pH 1.0, day 14, 40° C.",0%
same,Purity (%) at day 14 (60° C.),"solvent water, pH 1.0, day 14, 60° C.",0%
same,Purity(%) at day 0,"solvent water, pH 2.0, day 0",99.3 ± 0.2%
same,Purity(%) at day 14 (5° C.),"solvent water, pH 2.0, day 14, 5° C.",96.3 ± 0.2%
same,Purity(%) at day 14 (25° C.),"solvent water, pH 2.0, day 14, 25° C.",83.3 ± 0.3%
same,Purity(%) at day 14 (40° C.),"solvent water, pH 2.0, day 14, 40° C.",0%
same,Purity (%) at day 14 (60° C.),"solvent water, pH 2.0, day 14, 60° C.",0%
same,Purity(%) at day 0,"solvent water, pH 3.0, day 0",99.5 ± 0.2%
same,Purity(%) at day 14 (25° C.),"solvent water, pH 3.0, day 14, 25° C.",88.5 ± 0.2%
same,Purity(%) at day 14 (40° C.),"solvent water, pH 3.0, day 14, 40° C.",2.5 ± 0.2%
same,Purity (%) at day 14 (60° C.),"solvent water, pH 3.0, day 14, 60° C.",0%
same,Purity(%) at day 0,"solvent water, pH 3.7, day 0",99.5 ± 0.1%
same,Purity(%) at day 14 (25° C.),"solvent water, pH 3.7, day 14, 25° C.",96.1 ± 0.1%
same,Purity(%) at day 14 (40° C.),"solvent water, pH 3.7, day 14, 40° C.",14.5 ± 0.3%
same,Purity (%) at day 14 (60° C.),"solvent water, pH 3.7, day 14, 60° C.",0%
same,Purity(%) at day 0,"solvent water, pH 4.0, day 0",99.6 ± 0.1%
same,Purity(%) at day 14 (25° C.),"solvent water, pH 4.0, day 14, 25° C.",96.6 ± 0.2%
same,Purity(%) at day 14 (40° C.),"solvent water, pH 4.0, day 14, 40° C.",14.5 ± 0.3%
same,Purity (%) at day 14 (60° C.),"solvent water, pH 4.0, day 14, 60° C.",0%
same,Purity(%) at day 0,"solvent water, pH 4.3, day 0",99.7 ± 0.1%
same,Purity(%) at day 14 (25° C.),"solvent water, pH 4.3, day 14, 25° C.",96.6 ± 0.1%
same,Purity(%) at day 14 (40° C.),"solvent water, pH 4.3, day 14, 40° C.",12.9 ± 0.2%
same,Purity (%) at day 14 (60° C.),"solvent water, pH 4.3, day 14, 60° C.",0%
same,Purity(%) at day 0,"solvent water, pH 4.6, day 0",99.5 ± 0.2%
same,Purity(%) at day 14 (25° C.),"solvent water, pH 4.6, day 14, 25° C.",96.5 ± 0.2%
same,Purity(%) at day 14 (40° C.),"solvent water, pH 4.6, day 14, 40° C.",3.6 ± 0.2%
same,Purity (%) at day 14 (60° C.),"solvent water, pH 4.6, day 14, 60° C.",0%
same,Purity(%) at day 0,"solvent water, pH 5.0, day 0",99.5 ± 0.1%
same,Purity(%) at day 14 (5° C.),"solvent water, pH 5.0, day 14, 5° C.",97.3 ± 0.1%
same,Purity(%) at day 14 (25° C.),"solvent water, pH 5.0, day 14, 25° C.",92.5 ± 0.2%
same,Purity(%) at day 14 (40° C.),"solvent water, pH 5.0, day 14, 40° C.",1.0%
same,Purity (%) at day 14 (60° C.),"solvent water, pH 5.0, day 14, 60° C.",0%
same,Purity(%) at day 0,"solvent water, pH 6.0, day 0",99.4 ± 0.3%
same,Purity(%) at day 14 (5° C.),"solvent water, pH 6.0, day 14, 5° C.",92.1 ± 0.2%
same,Purity(%) at day 14 (25° C.),"solvent water, pH 6.0, day 14, 25° C.",84.7 ± 0.3%
same,Purity(%) at day 14 (40° C.),"solvent water, pH 6.0, day 14, 40° C.",0%
same,Purity (%) at day 14 (60° C.),"solvent water, pH 6.0, day 14, 60° C.",0%
same,Purity(%) at day 0,"solvent water, pH 7.0, day 0",99.2 ± 0.3%
same,Purity(%) at day 14 (5° C.),"solvent water, pH 7.0, day 14, 5° C.",87.9 ± 0.3%
same,Purity(%) at day 14 (25° C.),"solvent water, pH 7.0, day 14, 25° C.",59.8 ± 0.3%
same,Purity(%) at day 14 (40° C.),"solvent water, pH 7.0, day 14, 40° C.",0%
same,Purity (%) at day 14 (60° C.),"solvent water, pH 7.0, day 14, 60° C.",0%
same,Purity(%) at day 14 (5° C.),"solvent water, pH 8.0, day 14, 5° C.",57.9 ± 0.3%
same,Purity(%) at day 14 (25° C.),"solvent water, pH 8.0, day 14, 25° C.",21.7 ± 0.4%
same,Purity(%) at day 14 (40° C.),"solvent water, pH 8.0, day 14, 40° C.",0%
same,Purity (%) at day 14 (60° C.),"solvent water, pH 8.0, day 14, 60° C.",0%
